Measurements: ChEMBL document CHEMBL5126591, “Early potential evaluation of lead compounds from a DNA-encoded library by the determination of their thermodynamics through a chromatographic method based on immobilized β2-adrenoceptor” (Bioorg Med Chem, 2022)
The source made the active and inactive calls. The calls are words filed in the database; no cut-off is given here.

Assays:
[1] = biological target: T1, Beta-2 adrenergic receptor (Homo sapiens, UniProt P07550); assay: Binding affinity to immobilized Halo tag-fused beta2 adrenoceptor (unknown origin) expressed in Escherichia coli BL21 (DE3) assessed as reduction in retention time by chromatographic analysis
Target sequence in this assay (P07550 whole entry, looked up, the tested form may be a part): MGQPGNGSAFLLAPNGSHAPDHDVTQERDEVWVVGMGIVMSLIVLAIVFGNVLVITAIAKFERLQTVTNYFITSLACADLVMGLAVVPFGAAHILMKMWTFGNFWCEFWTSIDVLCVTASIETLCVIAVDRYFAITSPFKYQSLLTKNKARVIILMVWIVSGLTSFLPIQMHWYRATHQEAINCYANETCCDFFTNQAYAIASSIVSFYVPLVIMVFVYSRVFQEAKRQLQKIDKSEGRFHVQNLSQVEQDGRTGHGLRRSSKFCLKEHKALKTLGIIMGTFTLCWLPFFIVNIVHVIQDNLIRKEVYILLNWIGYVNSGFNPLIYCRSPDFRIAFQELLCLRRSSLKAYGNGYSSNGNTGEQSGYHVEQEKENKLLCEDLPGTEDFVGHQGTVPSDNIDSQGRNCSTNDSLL

[2] = biological target: T1, Beta-2 adrenergic receptor
Target sequence in this assay (P07550 whole entry, looked up, the tested form may be a part): as above
Description: Binding affinity to immobilized Halo tag-fused beta2 adrenoceptor (unknown origin) expressed in Escherichia coli BL21 (DE3) assessed as retention time by chromatographic analysis

[3] = biological target: T1, Beta-2 adrenergic receptor; assay: Displacement of [3H]-CGP12,177 from immobilized Halo tag-fused beta2 adrenoceptor (unknown origin) expressed in Escherichia coli BL21 (DE3)
Target sequence in this assay (P07550 whole entry, the tested form may be a part): as the sequence (P07550 whole entry, looked up, the tested form may be a part) above

**Q.** How did the Activity [1] turn out when `CC1(C)[C@@H](O)CC[C@]2(C)[C@H]3C(=O)C=C4[C@@H]5C[C@@](C)(C(=O)NCCc6ccc(O)cc6)CC[C@]5(C)CC[C@@]4(C)[C@]3(C)CC[C@@H]12` was run?
**A.** Active

**Q.** Which Retention time [2] does the source give for `O=NO` here?
**A.** 2.4 min

**Q.** For `CNC(C)Cc1ccccc1OC` (centres undefined) [METHOXYPHENAMINE], which Retention time [2] is on record?
**A.** 4.6 min

**Q.** What about the Ka [3] of the same compound?
**A.** 2.08 10^5/M
